Tests used:
[1] = in vivo
[2] = biological distribution of the 99m-Tc complex in mice as a function of time; format: in vivo, white female Swiss Webster mice; conditions: for Percentage of total 99m-Tc in mice, Carcass / Percentage of total 99m-Tc in mice, Gut / Percentage of total 99m-Tc in mice, Kidneys / Percentage of total 99m-Tc in mice, Liver / Percentage of total 99m-Tc in mice, Lungs / Percentage of total 99m-Tc in mice, Spleen & Pancreas / Percentage of total 99m-Tc in mice, Stomach / Percentage of total 99m-Tc in mice, Urine / Percentage of total 99m-Tc in mice, Pancreas / Percentage of total 99m-Tc in mice, Spleen: i.v. tail vein
Protocol: The mice were injected intravenously via the tail vein, sacrificed after appropriate time periods, then dissected. The isolated organs were assayed for radioactivity using a Packard series 410 A Auto Gamma Spectrometer.
Each data point represents an average value from three mice taken in three separate distribution studies.
The mice were tested and assayed for radioactivity as described in Example 1.

[3] = water/octanol partition coefficient Ln(aw/ao) of the technetium complex; format: physicochemical; conditions: for Partition Coefficient = Ln(aw/ao): 27000 µM
Protocol: This ratio of distribution is quite easily followed by determining the activity of the respective phases of a two-phase system, in which the complex is added as a water solution to octanol in equal parts. […] (wherein aw is the radioactivity distributed in the aqueous phase and ao is the radioactivity distributed in the organic phase, at a pH in the range between pH 4 and pH 9), after thorough agitation to admix the phases followed by standing to accomplish complete separation.
The blood is on the mildly alkaline side at pH=7.4, while the urine, etc., is about pH 5 to pH 8.

[4] = kidney imaging in dogs with a gamma radiation detecting camera; format: in vivo; conditions: one-half hour after injection
Protocol: Next, 9 ml. of saline were added to the glass vial (held under N2 atmosphere). The pH of the vial contents was raised to pH 7.4, using 1 molar NaOH. The solution was transferred to a pharmaceutical vial, capped and sealed. Using a needle inserted through the rubber seal septum, the vial was evacuated to 5 mm. Hg pressure and purged with nitrogen to 1 atmospheric pressure. The vial contents were ready for injection and kidney imaging.

[5] = mouse kidney distribution of Tc-99m pertechnetate (comparison); format: in vivo; conditions: at any time during a 24 hour period
[6] = localization of technetium activity in a mouse after injection of the complex into the blood stream; format: in vivo; conditions: one hour after injection into the blood stream
Protocol: One hour after this complex was injected into the blood stream of a mouse, about 24 percent of technetium activity had localized in its kidneys.

Compound: 99m-Tc-thioglucose
- clearance from kidney tissue [1]: rapidly cleared from kidney tissue
- Percentage of total 99m-Tc in mice, Carcass ([2]; 0 hr): 53.1 Percentage of total 99m-Tc
- Percentage of total 99m-Tc in mice, Carcass ([2]; 0.5 hr): 1.5 Percentage of total 99m-Tc
- Percentage of total 99m-Tc in mice, Carcass ([2]; 1.0 hr): 1.4 Percentage of total 99m-Tc
- Percentage of total 99m-Tc in mice, Gut ([2]; 0 hr): 13.3 Percentage of total 99m-Tc
- Percentage of total 99m-Tc in mice, Gut ([2]; 0.5 hr): 5.5 Percentage of total 99m-Tc
- Percentage of total 99m-Tc in mice, Gut ([2]; 1.0 hr): 1.1 Percentage of total 99m-Tc
- Percentage of total 99m-Tc in mice, Kidneys ([2]; 0 hr): 9.0 Percentage of total 99m-Tc
- Percentage of total 99m-Tc in mice, Kidneys ([2]; 0.5 hr): 2.8 Percentage of total 99m-Tc
- Percentage of total 99m-Tc in mice, Kidneys ([2]; 1.0 hr): 0.4 Percentage of total 99m-Tc
- Percentage of total 99m-Tc in mice, Liver ([2]; 0 hr): 18.9 Percentage of total 99m-Tc
- Percentage of total 99m-Tc in mice, Liver ([2]; 0.5 hr): 2.1 Percentage of total 99m-Tc
- Percentage of total 99m-Tc in mice, Liver ([2]; 1.0 hr): 3.3 Percentage of total 99m-Tc
- Percentage of total 99m-Tc in mice, Lungs ([2]; 0 hr): 2.9 Percentage of total 99m-Tc
- Percentage of total 99m-Tc in mice, Lungs ([2]; 0.5 hr): 0.3 Percentage of total 99m-Tc
- Percentage of total 99m-Tc in mice, Lungs ([2]; 1.0 hr): 0.08 Percentage of total 99m-Tc
- Percentage of total 99m-Tc in mice, Spleen & Pancreas ([2]; 0 hr): 2.1 Percentage of total 99m-Tc
- Percentage of total 99m-Tc in mice, Spleen & Pancreas ([2]; 0.5 hr): 0.1 Percentage of total 99m-Tc
- Percentage of total 99m-Tc in mice, Spleen & Pancreas ([2]; 1 hr): 0.2 Percentage of total 99m-Tc
- Percentage of total 99m-Tc in mice, Stomach ([2]; 0 hr): 0.8 Percentage of total 99m-Tc
- Percentage of total 99m-Tc in mice, Stomach ([2]; 0.5 hr): 0.8 Percentage of total 99m-Tc
- Percentage of total 99m-Tc in mice, Stomach ([2]; 1.0 hr): 0.06 Percentage of total 99m-Tc
- Percentage of total 99m-Tc in mice, Urine ([2]; 0 hr): 0.0 Percentage of total 99m-Tc
- Percentage of total 99m-Tc in mice, Urine ([2]; 0.5 hr): 89.9 Percentage of total 99m-Tc
- Percentage of total 99m-Tc in mice, Urine ([2]; 1 hr): 93.5 Percentage of total 99m-Tc
- elimination from the kidneys ([2]; mice, 0-1 hr): eliminated from the kidneys of the mice very rapidly

Compound: 99m-Tc-dimercaptosuccinic acid
- Partition Coefficient = Ln(aw/ao) ([3]; pH 4): 6.0
- Partition Coefficient = Ln(aw/ao) ([3]; pH 5): 6.8
- Partition Coefficient = Ln(aw/ao) ([3]; pH 6): 7.6
- Partition Coefficient = Ln(aw/ao) ([3]; pH 7): 8.5
- Partition Coefficient = Ln(aw/ao) ([3]; pH 8): 8.2
- Partition Coefficient = Ln(aw/ao) ([3]; pH 9): 8.1
- Percentage of total 99m-Tc in mice, Carcass ([2]; 0 hr): 40.9 Percentage of total 99m-Tc
- Percentage of total 99m-Tc in mice, Carcass ([2]; 0.5 hr): 30.4 Percentage of total 99m-Tc
- Percentage of total 99m-Tc in mice, Carcass ([2]; 1.0 hr): 26.9 Percentage of total 99m-Tc
- Percentage of total 99m-Tc in mice, Carcass ([2]; 2.0 hr): 20.4 Percentage of total 99m-Tc
- Percentage of total 99m-Tc in mice, Carcass ([2]; 4.0 hr): 21.3 Percentage of total 99m-Tc
- Percentage of total 99m-Tc in mice, Carcass ([2]; 24.0 hr): 8.0 Percentage of total 99m-Tc
- Percentage of total 99m-Tc in mice, Gut ([2]; 0 hr): 10.1 Percentage of total 99m-Tc
- Percentage of total 99m-Tc in mice, Gut ([2]; 0.5 hr): 6.1 Percentage of total 99m-Tc
- Percentage of total 99m-Tc in mice, Gut ([2]; 1.0 hr): 7.0 Percentage of total 99m-Tc
- Percentage of total 99m-Tc in mice, Gut ([2]; 2.0 hr): 4.3 Percentage of total 99m-Tc
- Percentage of total 99m-Tc in mice, Gut ([2]; 4.0 hr): 3.0 Percentage of total 99m-Tc
- Percentage of total 99m-Tc in mice, Gut ([2]; 24.0 hr): 1.7 Percentage of total 99m-Tc
- Percentage of total 99m-Tc in mice, Kidneys ([2]; 0 hr): 9.4 Percentage of total 99m-Tc
- Percentage of total 99m-Tc in mice, Kidneys ([2]; 0.5 hr): 29.3 Percentage of total 99m-Tc
- Percentage of total 99m-Tc in mice, Kidneys ([2]; 1.0 hr): 39.5 Percentage of total 99m-Tc
- Percentage of total 99m-Tc in mice, Kidneys ([2]; 2.0 hr): 45.6 Percentage of total 99m-Tc
- Percentage of total 99m-Tc in mice, Kidneys ([2]; 4.0 hr): 54.8 Percentage of total 99m-Tc
- Percentage of total 99m-Tc in mice, Kidneys ([2]; 24.0 hr): 75.5 Percentage of total 99m-Tc
- Percentage of total 99m-Tc in mice, Liver ([2]; 0 hr): 28.6 Percentage of total 99m-Tc
- Percentage of total 99m-Tc in mice, Liver ([2]; 0.5 hr): 12.8 Percentage of total 99m-Tc
- Percentage of total 99m-Tc in mice, Liver ([2]; 1.0 hr): 9.4 Percentage of total 99m-Tc
- Percentage of total 99m-Tc in mice, Liver ([2]; 2.0 hr): 6.8 Percentage of total 99m-Tc
- Percentage of total 99m-Tc in mice, Liver ([2]; 4.0 hr): 3.8 Percentage of total 99m-Tc
- Percentage of total 99m-Tc in mice, Liver ([2]; 24.0 hr): 2.7 Percentage of total 99m-Tc
- Percentage of total 99m-Tc in mice, Lungs ([2]; 0 hr): 7.4 Percentage of total 99m-Tc
- Percentage of total 99m-Tc in mice, Lungs ([2]; 0.5 hr): 2.3 Percentage of total 99m-Tc
- Percentage of total 99m-Tc in mice, Lungs ([2]; 1.0 hr): 1.7 Percentage of total 99m-Tc
- Percentage of total 99m-Tc in mice, Lungs ([2]; 2.0 hr): 0.8 Percentage of total 99m-Tc
- Percentage of total 99m-Tc in mice, Lungs ([2]; 4.0 hr): 0.7 Percentage of total 99m-Tc
- Percentage of total 99m-Tc in mice, Lungs ([2]; 24.0 hr): 0.0 Percentage of total 99m-Tc
- Percentage of total 99m-Tc in mice, Pancreas ([2]; 0 hr): 1.4 Percentage of total 99m-Tc
- Percentage of total 99m-Tc in mice, Pancreas ([2]; 0.5 hr): 0.7 Percentage of total 99m-Tc
- Percentage of total 99m-Tc in mice, Pancreas ([2]; 1.0 hr): 0.4 Percentage of total 99m-Tc
- Percentage of total 99m-Tc in mice, Pancreas ([2]; 2.0 hr): 0.3 Percentage of total 99m-Tc
- Percentage of total 99m-Tc in mice, Pancreas ([2]; 4.0 hr): 0.2 Percentage of total 99m-Tc
- Percentage of total 99m-Tc in mice, Pancreas ([2]; 24.0 hr): 0.2 Percentage of total 99m-Tc
- Percentage of total 99m-Tc in mice, Spleen ([2]; 0 hr): 0.3 Percentage of total 99m-Tc
- Percentage of total 99m-Tc in mice, Spleen ([2]; 0.5 hr): 0.4 Percentage of total 99m-Tc
- Percentage of total 99m-Tc in mice, Spleen ([2]; 1.0 hr): 0.2 Percentage of total 99m-Tc
- Percentage of total 99m-Tc in mice, Spleen ([2]; 2.0 hr): 0.3 Percentage of total 99m-Tc
- Percentage of total 99m-Tc in mice, Spleen ([2]; 4.0 hr): 0.1 Percentage of total 99m-Tc
- Percentage of total 99m-Tc in mice, Spleen ([2]; 24.0 hr): 0.1 Percentage of total 99m-Tc
- Percentage of total 99m-Tc in mice, Stomach ([2]; 0 hr): 1.8 Percentage of total 99m-Tc
- Percentage of total 99m-Tc in mice, Stomach ([2]; 0.5 hr): 1.1 Percentage of total 99m-Tc
- Percentage of total 99m-Tc in mice, Stomach ([2]; 1.0 hr): 1.2 Percentage of total 99m-Tc
- Percentage of total 99m-Tc in mice, Stomach ([2]; 2.0 hr): 0.5 Percentage of total 99m-Tc
- Percentage of total 99m-Tc in mice, Stomach ([2]; 4.0 hr): 0.4 Percentage of total 99m-Tc
- Percentage of total 99m-Tc in mice, Stomach ([2]; 24.0 hr): 0.4 Percentage of total 99m-Tc
- accumulation of activity in the animal's kidneys ([2]; mice, immediately after injection to 24 hour): begins to accumulate in the animal's kidneys immediately after injection of the Tc-DMSA complex and continues to concentrate during a 24 hour period
- kidney images [4]: Good kidney images

Compound: Technetium-mercaptosuccinic Acid [^99m Tc-mercapto succinic acid]
- clearance from kidney tissue [1]: rapidly cleared from kidney tissue

Compound: [O]=[99Tc](=[O])(=[O])[O-] [Tc-99m pertechnetate]
- maximum kidney concentration of Tc-99m pertechnetate [5]: ≤ 3%

Compound: Technetium-3-mercaptopropanoic Acid
- Partition Coefficient - Ln(aw/ao) ([3]; pH 4): 2.4
- Partition Coefficient - Ln(aw/ao) ([3]; pH 5): 2.7
- Partition Coefficient - Ln(aw/ao) ([3]; pH 6): 3.1
- Partition Coefficient - Ln(aw/ao) ([3]; pH 7): 3.6
- Partition Coefficient - Ln(aw/ao) ([3]; pH 8): 4.1
- Partition Coefficient - Ln(aw/ao) ([3]; pH 9): 4.7

Compound: technetium-mercaptoacetic acid
- technetium activity found in urine [6]: A large part of the remaining activity
- technetium activity localized in kidneys [6]: about 24%
